This is an account of results in publication PMC7025792 (ACS infectious diseases, 2019).

One experiment has as its system UCH115 (dfrA). Nature of the experiment: MIC, broth dilution, dfrA clinical isolate. The class given is cell-based. The settings on record: Staphylococcus aureus, 18 h, read-out: Minimum Inhibitory Concentrations.
The test system of the next experiment is UCH121 (dfrG). Nature of the experiment: MIC, broth dilution, dfrG clinical isolate. The settings on record: for MIC: Staphylococcus aureus, 18 h, read-out: Minimum Inhibitory Concentrations; for Minimum Inhibitory Concentrations: UCH121 (dfrG), 18 hour, 37°C, isosensitest broth. The class given is cell-based, Staphylococcus aureus. (In broth dilution the organism is exposed to a series of concentrations in liquid medium.)

The subject of a further experiment is HH1184 (dfrK). The experiment can be described thus: MIC, broth dilution, dfrK clinical isolate. The settings on record: for Minimum Inhibitory Concentrations: HH1184 (dfrK), 18 hour, 37°C, isosensitest broth; for MIC: Staphylococcus aureus, 18 h, read-out: Minimum Inhibitory Concentrations. The class given is cell-based, Staphylococcus aureus.
The target of another experiment is DfrA (Staphylococcus aureus, UniProt P13955). Nature of the experiment: biochemical. The class given is biochemical.
Chain of DfrA (P13955 whole entry): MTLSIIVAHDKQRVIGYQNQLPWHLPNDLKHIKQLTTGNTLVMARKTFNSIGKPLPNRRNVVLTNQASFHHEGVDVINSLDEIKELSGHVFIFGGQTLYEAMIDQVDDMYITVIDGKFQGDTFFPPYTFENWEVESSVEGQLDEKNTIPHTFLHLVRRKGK
Experiment [1] deals with T1, DfrG (Staphylococcus aureus, UniProt Q4H3Y3). Nature of the experiment: biochemical.
For another experiment, the target named is DfrB (Staphylococcus aureus, UniProt P0A017). The class given is biochemical. The settings on record: read-out: KM, DHF, NADPH saturation 100 μM.
Chain of DfrB (P0A017 whole entry): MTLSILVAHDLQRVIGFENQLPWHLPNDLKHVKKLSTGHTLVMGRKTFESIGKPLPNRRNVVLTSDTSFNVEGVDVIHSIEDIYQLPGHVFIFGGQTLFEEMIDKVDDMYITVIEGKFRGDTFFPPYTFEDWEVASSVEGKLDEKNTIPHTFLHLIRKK
The target in experiment [2] is T1, DfrG. The note with it: read-out: KM, DHF, NADPH saturation 100 μM.
In experiment [3] the target is T2, DfrK (Staphylococcus aureus, UniProt C7C2U7). The settings on record: read-out: KM, DHF, NADPH saturation 100 μM.
Experiment [4] concerns the target human DHFR isoform (HuDHFR) (Homo sapiens, UniProt P00374). The settings on record: read-out: KM, DHF, NADPH saturation 100 μM.
For a further experiment, the system named is MCF10A. The experiment can be described thus: Mammalian cytotoxicity, Alamar Blue. The format is cell-based. The note with it: Homo sapiens, MCF-10A, 4 h, read-out: Mammalian Toxicity IC50. On the technique in general: Resazurin is reduced to fluorescent resorufin, in cell work by metabolically active cells.
Another experiment has as its system HepG2. The experiment can be described thus: Mammalian cytotoxicity, Alamar Blue. The settings on record: Homo sapiens, HepG2, 4 h, read-out: Mammalian Toxicity IC50. The format is cell-based.
In experiment [5] the target is T2, DfrK. Nature of the experiment: biochemical. The note with it: Enzymatic inhibition, Table 4, average of three experiments ±SD.

In brackets after ≈: the same amount, converted by molar mass. Several values for one entry are separate records, joined by “and”; a condition that tells them apart may be missing. Equal entries are not always repeated.

Chain of human DHFR isoform (HuDHFR) (P00374 whole entry, canonical isoform): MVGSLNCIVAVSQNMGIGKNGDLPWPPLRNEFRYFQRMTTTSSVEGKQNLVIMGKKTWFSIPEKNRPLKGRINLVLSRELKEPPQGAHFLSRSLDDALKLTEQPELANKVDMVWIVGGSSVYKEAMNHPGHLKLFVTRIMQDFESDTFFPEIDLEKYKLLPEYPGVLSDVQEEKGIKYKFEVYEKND

Usually Ki stands for a measure of affinity in units of concentration, obtained from inhibition or displacement. For the compound `COc1cc(Cc2cnc(N)nc2N)c2c(c1OC)OC(C1CC1)C=C2` (stereo not shown) [Iclaprim, iclaprim], the MIC is 64 µg/mL (≈ 181 µM) with UCH115 (dfrA), above 250 µg/mL in the experiment with UCH121 (dfrG) and above 250 µg/mL in the experiment with HH1184 (dfrK). Moreover, the “Minimum Inhibitory Concentrations” value in the experiment on UCH121 (dfrG) and in the experiment with HH1184 (dfrK) was above 250 µg/mL in each case. The Ki at DfrA is 90 ± 3 nM; at DfrG [1], 1350 ± 10 nM.
As for `Nc1nc(=O)c2c([nH]1)NCC(CNc1ccc(C(=O)N[C@@H](CCC(=O)O)C(=O)O)cc1)=N2` [DHF, dihydrofolate], the Km on DfrB is 13.3 µM and 13.4 µM; on DfrA (read-out: KM, DHF, DfrA, NADPH saturation 100 μM), 5.76 µM; at DfrG [2], 8.87 µM and 8.9 µM; at DfrK [3], 11 µM; in [4] it was 10.5 µM.
`COc1cc(Cc2cnc(N)nc2N)cc(OC)c1OC` [Trimethoprim, trimethoprim]: the MIC in the experiment with UCH115 (dfrA) is 250 µg/mL (≈ 861 µM); in the experiment with UCH121 (dfrG), above 1000 µg/mL; with HH1184 (dfrK), above 1000 µg/mL. The “Minimum Inhibitory Concentrations” value in the experiment with UCH121 (dfrG) and in the experiment with HH1184 (dfrK) was above 1000 µg/mL throughout.
The IC50 is the concentration that gives 50% inhibition. For the compound `CN(Cc1cnc2nc(N)nc(N)c2n1)c1ccc(C(=O)N[C@@H](CCC(=O)O)C(=O)O)cc1` [Methotrexate], the MIC in the experiment on UCH115 (dfrA), in the experiment on UCH121 (dfrG) and in the experiment on HH1184 (dfrK) was above 250 µg/mL throughout. The Ki on DfrA came to 0.38 ± 0.04 nM; at DfrG [1], 1.8 ± 0.1 nM; on DfrK [5] it was 2.5 ± 0.1 nM. In addition, the IC50 in the experiment with MCF10A and in the experiment with HepG2 was above 200 µg/mL each time.
